Non-standard residues stand in square brackets, D forms with d. Residues, ends and D or L forms follow the SMILES beside them. ξ: configuration not given here. *: point of attachment. Asu = N[C@@H](CCCCCC(=O)O)C(=O)O; ξPip = O=C(O)C1CCCCN1; Aib = CC(C)(N)C(=O)O; NHOH = ON*

The subject of experiment [1] is B16/BL6 cells. Put plainly: MHC class-I molecule expression promoting activity. The experiment is classed as cell-based, mouse. To be noted: for MHC class-I molecule expression promoting action: FIGS. 3 and 4, dependence on concentration of addition; for Twice Promoting Concentration Cx2: concentration at which MHC class-I expression is twice that without addition; for Twice Promoting Concentration Cx2 / conc. for 2-fold expression (nM) mean: 72 hours; for conc. for 2-fold expression (nM) mean: mean of a plurality of assays.
Description: The cancer cells used were mouse melanoma cells, B16/BL6 cells, provided by, the National Cancer Institute, U.S.A. Said cells were cultivated in MEM media supplemented with 10% FBS at 37° C. in the presence of 5% carbon dioxide in an humidified incubator.
A compound to be tested was preliminarily dissolved in dimethyl sulfoxide (DMSO) and adjusted to a concentration of 100 mM or 10 mM (source solution).
Said B16/BL6 cells were inoculated on 96 well microplate at a cell density of 5000 cells per well, each well containing 200 μl of said medium. […] Thereafter, each well was once washed with PBS (phosphate buffered saline) and floating cells and the medium were removed. Then, the well was treated with 0.1% glutaraldehyde solution for 3 minutes to fix the cells.
The amount of MHC class-I molecule expressed on the surface of the fixed cells was measured by the following method. Anti-H-2K^bD^bD^d antibody, which is an antibody against mouse MHC classI molecule (commercially available from Meiji Milk Co., Ltd), was used as a primary antibody, biotinylated anti-mouse IgG+M (commercially available from Chemicon) was used as a secondary antibody, and streptavidin-β-galactosidase conjugate (commercially available from BRL) was reacted as a labelling enzyme. The amount of the thus labelled enzyme β-galactosidase was measured in a microplate reader by recording the fluorescent intensity (excitation: 365 nm, fluorescence: 450 nm) derived from the enzymaticreaction product using 4-methylumbelliferyl-β-D-galactoside (commercially available from Nacalai Tesque) as a substrate. […] The value obtained by subtracting said background level from the, actually measured value (an apparent value including the background level) was the true measurement reflecting the amount of expressed MHC class-I molecule.
A group without the addition of any compound to be tested was used as a reference group and the measurement of MHC class-I molecule expressed in said group was used as a standard value. The amount of MHC class-I molecule expressed at a concentration of addition of each test compound is shown as a relative amount, said standard value taken as one (1). For each compound to be tested, various concentrations of addition were selected to investigate the dependency of MHC class-I molecule expression promoting action on the concentration of addition.

Experiment [2] has as its system B16/BL6 cells. Kind of experiment: Inhibitory effect on histone deacetylation in cells (AUT gel electrophoresis). Format: cell-based, mouse. To be noted: Example 1 added at 10 μM, trichostatin A at 1 μM; 6 hours; histone H4 bands. As for the experimental part: In a culture flask of 75 ml in capacity, 1.5×10^5 B16/BL6 cells were inoculated and preliminarily cultured for 4 days. Then, a given amount of a compound to be tested was added and subsequently cultured for 6 hours. Thereafter, cells were striped using 0.25% trypsin enzyme solution, washed once with PBS and stored temporarily at −80° C.
From this cell sample, histone was separated from chromatin and collected together with other proteins in a conventional manner. The resulting protein sample was subjected to AUTgel electrophoresis in an amount of 1 μg/lane. Said gel was stained with silver to detect bands separated by the migration.
The result on a control group in which no compound to be tested was added is also shown.

The test system of experiment [3] is B16/BL6 cells. Put plainly: Inhibitory effect on cell proliferation (MTS, 48 hours). Format: cell-based, mouse. To be noted: 48 hours after addition; read-out: 50% inhibiting concentration. The text has this: (§1) In order to verify the action of the cyclic tetrapeptide derivative according to the present invention in inhibiting cell proliferation in cancerized cells, the action on the proliferation of the aforementioned B16/BL6 cells was investigated. The evaluation of cell proliferation rates was done utilizing a commercially available measuring kit, specifically, from Promega under the trade name CellTiter 96 Aqueous Non-Radioactive Proliferation Assay Kit. In the measuring kit, the amount of products through reduction of a reagent tetrazolium compound (3-(4,5-dimethylthiazol-2-yl)-5-(3-carboxymethoxyphenyl)-2-(4-sulfophenyl)-2H-tetrazolium, inner salt; MTS) by viable animal cells is determined by detecting spectrophotometrically the color generated from the products. Since the amount of products is proportional to the amount of viable cells, this kit is utilized to evaluate the amount of viable cells.
(§2) According to the procedure of Test Example 1, B16/BL6 cells are inoculated in a 96 well microplate and cultured for 24 hours. Then, 10 μl of a solution of the source solution of a compound to be tested which has been diluted to a predetermined amount per well is added. Thereafter, culture is continued for additional 48 hours and 20 μl of a reagent solution in the aforementioned CellTiter 96 Aqueous Non-Radioactive Proliferation Assay Kit is then added. After incubation is continued at 37° C. for 1 hour, the amount of color generation is measured as an absorbance at 490 n musing a microplate reader.
(§3) The amount of cell proliferation of a group to which a compound to be tested is added is expressed in a relative value as compared to the standard cell proliferation (100%) in a control group to which no compound to be tested is added. For each compound tested, the amounts of cell proliferation were measured at different concentrations of addition and the dependence of the quantitative cell proliferation on the concentration of addition was investigated. From the results, a concentration of addition at which the amount of cell proliferation was inhibited by 50% relative to the amount of cell proliferation in the control group without addition was determined.

Experiment [4] concerns colon cancer Colon26 cell line. Kind of experiment: Cell proliferation inhibition (72 hours). Format: cell-based, mouse. To be noted: read-out: 50% proliferation inhibiting concentration Colon 26 (nM) mean.
Description: as §1, §2, §3
(§4) The test method was in accordance with the above-mentioned procedure, except that the period of incubation after the addition of a compound was 72 hours.
(§5) As illustrative examples, results are shown for an evaluation using mouse malignant melanoma B16/BL6 and B16 cell lines; leukemia L1210 cell line, colon cancer Colon26 cell line, and liver cancer MH134 cell line as cancer cells. For the cell proliferation inhibiting action of each compound tested for these cancer cells, 50% proliferation inhibiting concentrations are shown in Table 4.

In experiment [5] the test system is leukemia L1210 cell line. Put plainly: Cell proliferation inhibition (72 hours). Format: cell-based, mouse. To be noted: read-out: 50% proliferation inhibiting concentration L1210 (nM) mean.
Description: as §1, §2, §3, §4, §5

Experiment [6] relates to liver cancer MH134 cell line. Kind of experiment: Cell proliferation inhibition (72 hours). The experiment is classed as cell-based, mouse. To be noted: read-out: 50% proliferation inhibiting concentration MH134 (nM) mean.
Description: as §1, §2, §3, §4, §5

The test system of experiment [7] is mouse malignant melanoma B16/BL6 cell line. Format: cell-based. To be noted: 72 hours; read-out: 50% proliferation inhibiting concentration B16/BL6 (nM) mean.
Description: as §1
According to the procedure of Test Example 1, B16/BL6 cells are inoculated in a 96 well microplate and cultured for 24 hours. […] Thereafter, culture is continued for additional 48 hours and 20 μl of a reagent solution in the aforementioned CellTiter 96 Aqueous Non-Radioactive Proliferation Assay Kit is then added. After incubation is continued at 37° C. for 1 hour, the amount of color generation is measured as an absorbance at 490 n musing a microplate reader.
The amount of cell proliferation of a group to which a compound to be tested is added is expressed in a relative value as compared to the standard cell proliferation (100%) in a control group to which no compound to be tested is added. For each compound tested, the amounts of cell proliferation were measured at different concentrations of addition and the dependence of the quantitative cell proliferation on the concentration of addition was investigated.
as §4

Experiment [8] deals with mouse malignant melanoma B16 cell line. Put plainly: Cell proliferation inhibition (72 hours). The experiment is classed as cell-based. To be noted: read-out: 50% proliferation inhibiting concentration B16 (nM) mean.
Description: as §1, §2, §3, §4, §5

The target of experiment [9] is Mouse histone deacetylase. The experiment is classed as biochemical. How it is done: In an enzyme system using a radio-labelled acetylated histone as a substrate, histone deacetylase enzyme inhibiting activity was evaluated. The basic conditions were in accordance with the method of Yoshida et al. (J. Biol. Chem., 265, 17174-17179, 1990).
Mouse histone deacetylase to be used was partially purified from FM3A cells. Cells were suspended in HDA buffer (15 mM potassium phosphate, 5% glycerol, 0.2 mM EDTA, pH 7.5), homogenized and centrifuged (35000×g, 10 min) to collect the nuclei which in turn were homogenized in the same buffer containing 1 M (NH4)2SO4. After ultrasonic disruption and centrifugation, the concentration of (NH4)2SO4 in the supernatant was increased to 3.5 M to precipitate deacetylase enzyme proteins. This precipitate was redissolved in HDA buffer, dialyzed against HDA buffer, applied to DEAE-cellulose column and eluted in NaCl gradient. Active fractions were used as a histone deacetylase enzyme solution.
As a substrate, [^3H]acetyl histone was used. In a culture solution of FM3A cells in the presence of 5 mM sodium n-butyrate, [^3H]acetate was added, followed by incubation for 30 minutes to radio-label the histone. The histone was prepared in a conventional manner and used as a substrate solution.
An assay was performed by adding a compound to be tested at a given concentration while using a no-addition control group, and by incubating the substrate solution and the enzyme solution at 37° C. for 10 minutes (reaction volume, 100 μl). The enzyme reaction was stopped by adding 10 μl of concentrated hydrochloric acid and the excised [^3H]acetate was extracted with ethyl acetate for radioactivity measurement. The inhibiting activity was expressed by a concentration at which the enzyme activity in the control group was inhibited by 50% (50% inhibiting concentration).

The target in experiment [10] is histone deacetylase. Kind of experiment: Histone deacetylase enzyme inhibiting activity, synthetic peptide substrate. Format: biochemical, mouse. To be noted: enzyme from B16/BL6 cells; [3H]acetylated histone H4 peptide; 37° C. 3 hours. As for the experimental part:
The preparation of histone deacetylase was performed essentially according to the method of Yoshida et al. (J. Biol. Chem., 265,17174-17179, 1990). The enzyme to be used was partially purified from B16/BL6 cells. The cells were suspended in HDA buffer (15 mM potassium phosphate, 5% glycerol, 0.2 mM EDTA, […], pH 7.5), homogenized and centrifuged (2500×g, 10 min) to collect the nuclei, which in turn were homogenized in the same buffer containing 1 M (NH4)2SO4. After ultrasonic disruption and centrifugation, the concentration of (NH4)2SO4 in the collected supernatant was increased to 3.5 M to precipitate histone deacetylase. This precipitate was redissolved in HDA buffer, subjected to gel filtration to replace the solvent with HDA buffer, and used as a crude histone deacetylase enzyme solution.
As a substrate, a synthetic substrate peptide, [^3H]acetylated histone H4 peptide was used. This [^3H]acetylated histone H4 peptide was obtained by synthesizing the N-terminal peptide of histone H4; […] (the C-terminal being cysteine) and radio-acetylating with ^3H -acetic anhydride.
An assay was performed by incubating the synthetic substrate solution and the enzyme solution at 37° C. for 3 hours in the presence of a compound to be tested (reaction volume, 100 μl). The reaction was stopped by adding 25 μl of 1 M HCl and 0.2 M acetic acid and [^3H]acetate excised by the enzyme reaction was extracted with ethyl acetate for radioactivity measurement. As a control group, the same procedure was repeated without addition of any test compound to the reaction system. The inhibiting activity was expressed by a concentration at which the histone deacetylase enzyme activity in the control group was inhibited by 50% (50% inhibiting concentration).

For `O=C(CCCCC[C@@H]1NC(=O)[C@H]2CCCN2C(=O)[C@H](Cc2ccccc2)NC(=O)[C@H](Cc2ccccc2)NC1=O)NO` [HDA-5, cyclo(-Asu(NHOH)-Phe-Phe-D-Pro-)] (cyclo([Asu](NHOH)FF[dP])), the “MHC class-I molecule expression promoting action” value in [1] is reported as “exhibited MHC class-I molecule expression promoting action”. The “Twice Promoting Concentration Cx2” value in experiment [1] turned out to be 135 nM. Also, the “conc. for 2-fold expression (nM) mean” value in [1] came out at 98.2 nM. For the same molecule, the “inhibitory effect on histone deacetylation” value in experiment [2] is recorded as “inhibits the deacetylation of histone”. Further, the IC50 in experiment [3] was 210 nM; in [4], 2160 nM; in [5], 500 nM; in [6] it was 1660 nM; in experiment [7], 257 nM; in [8], 3370 nM. The IC50 is 2.18 nM in experiment [9] and 6.03 nM in experiment [10].

As to `CC(C)C[C@@H]1NC(=O)[C@@H](Cc2ccccc2)NC(=O)[C@H](CCCCCC(=O)NO)NC(=O)C2CCCCN2C1=O` (stereo partly drawn) [HDA-12, cyclo(-Asu(NHOH)-D-Phe-Leu-Pip-)] (cyclo([Asu](NHOH)[dF]L[ξPip])), the “MHC class-I molecule expression promoting action” value in experiment [1] is recorded as “exhibited MHC class-I molecule expression promoting action”. Moreover, in experiment [1], the “Twice Promoting Concentration Cx2” value was 3.86 nM. Also, the “conc. for 2-fold expression (nM) mean” value in [1] was determined as 2.75 nM. The IC50 in experiment [3] worked out at 12.3 nM; in experiment [4] it was 149 nM; in experiment [5], 28.3 nM; in [6] it was 112 nM; in experiment [7], 9.44 nM; in experiment [8] it was 262 nM.

For the molecule `CC1(C)NC(=O)[C@H](CCCCCC(=O)NO)NC(=O)[C@H]2CCCN2C(=O)[C@H](Cc2ccccc2)NC1=O` [HDA-15, cyclo(-Asu(NHOH)-Aib-Phe-D-Pro-)] (cyclo([Aib]F[dP][Asu](NHOH))), in experiment [1], the “MHC class-I molecule expression promoting action” value is “exhibited MHC class-I molecule expression promoting action”. In addition, in [1], the “Twice Promoting Concentration Cx2” value worked out at 36.2 nM. Besides, in experiment [1], the “conc. for 2-fold expression (nM) mean” value is 33.2 nM. Besides, the IC50 in [3] was 92.5 nM; in [4], 908 nM; in experiment [5], 193 nM; in [6] it was 946 nM; in [7], 110 nM; in experiment [8], 1230 nM.

Regarding `CC(/C=C/C(=O)NO)=C\[C@@H](C)C(=O)c1ccc(N(C)C)cc1` [Trichostatin A, trichostatin A, reference compound], the “MHC class-I molecule expression promoting action” value in experiment [1] is “MHC class-I molecule expression promoting action was confirmed”. Also, the “MHC class-I molecule expression promoting activity” value in experiment [1] (allowed to act on animal cells (summary statement)) is on record as “promotes the expression of MHC class-I molecule”. For the same molecule, in experiment [1], the “Twice Promoting Concentration Cx2” value is reported as 3.35 nM. Also, in [2], the “inhibitory effect on histone deacetylation” value is “a total of 5 discrete bands are clearly seen in this region”. The IC50 is 14.3 nM in experiment [3]; 139 nM in experiment [4]; 12.4 nM in experiment [5]; 41.7 nM in experiment [6]; 19.1 nM in [7]; 621 nM in experiment [8]. The molecule further displayed an IC50 in experiment [10] of 2.55 nM.
